Data published in patent publication US20230078764A1 (Yumanity Therapeutics, Inc., priority 2019, published 2023).

Assays:
human SCD1 = molecular target: T1, human SCD1 (Homo sapiens, UniProt O00767); assay: Growth inhibition of yeast strain expressing human SCD1 as sole desaturase (OLE1 deleted), OD600 readout; format: cell-based; details: yeast strain expressing human SCD1 as sole desaturase; growth (OD600) after 40 h at 30° C.; read-out: SCD1 IC50
T1 construct: expressed in transfected cells; host or cells: yeast strain with OLE1 deleted, plasmid-borne human SCD1 (selected in SD-Ura)
T1 sequence (O00767 1-359): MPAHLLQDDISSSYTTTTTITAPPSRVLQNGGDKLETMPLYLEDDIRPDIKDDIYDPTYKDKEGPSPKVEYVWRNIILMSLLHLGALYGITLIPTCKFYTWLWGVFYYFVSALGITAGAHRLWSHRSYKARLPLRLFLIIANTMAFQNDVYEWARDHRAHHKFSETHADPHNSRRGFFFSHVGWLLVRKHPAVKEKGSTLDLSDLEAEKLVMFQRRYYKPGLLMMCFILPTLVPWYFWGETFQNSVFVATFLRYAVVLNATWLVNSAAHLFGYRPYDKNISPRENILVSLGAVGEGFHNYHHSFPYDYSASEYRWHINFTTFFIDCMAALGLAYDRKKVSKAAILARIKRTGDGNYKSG

human SCD5 = molecular target: T2, human SCD5 (Homo sapiens, UniProt Q86SK9); assay: Growth inhibition of yeast strain expressing human SCD5 as sole desaturase (OLE1 deleted), OD600 readout; format: cell-based; details: yeast strain expressing human SCD5 as sole desaturase; growth (OD600) after 40 h at 30° C.; read-out: SCD5 IC50
T2 construct: expressed in transfected cells; host or cells: yeast strain with OLE1 deleted, plasmid-borne human SCD5 (selected in SD-Ura)
T2 sequence (Q86SK9 1-330): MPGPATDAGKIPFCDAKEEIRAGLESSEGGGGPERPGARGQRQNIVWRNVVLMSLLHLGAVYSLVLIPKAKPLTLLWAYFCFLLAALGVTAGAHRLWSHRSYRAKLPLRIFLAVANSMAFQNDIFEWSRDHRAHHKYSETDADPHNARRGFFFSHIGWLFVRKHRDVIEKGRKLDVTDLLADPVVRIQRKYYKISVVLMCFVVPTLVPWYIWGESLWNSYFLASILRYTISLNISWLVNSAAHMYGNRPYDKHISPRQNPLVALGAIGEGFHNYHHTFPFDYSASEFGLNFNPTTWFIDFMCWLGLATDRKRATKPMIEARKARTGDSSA

| Structure (SMILES) | IC50 (human SCD1) | IC50 (human SCD5) |
| --- | --- | --- |
| N#Cc1ccc(NC(=O)c2ccc(Cc3ccc(F)c(F)c3)cn2)cn1 [Compound 542] | 18000 nM | 10 nM |
| Cn1cc(C(=O)Nc2ccc(Cc3cc(F)c(F)c(Cl)c3)cn2)ccc1=O [Compound 543] | 37 nM | 10 nM |
| O=C(Nc1ccc(Cc2cccc(F)c2)cn1)c1ncc(CO)cn1 [Compound 544] | 10 nM | 960 nM |
| Cn1cc(C(=O)Nc2ccc(Cc3cccc(C(F)F)c3)cn2)ccc1=O [Compound 545] | 710 nM | 100 nM |
| Cn1nccc(C(=O)Nc2ccc(Cc3cccc(F)c3)cn2)c1=O [Compound 546] | 320 nM | 27 nM |
| Cn1nccc(C(=O)Nc2ccc(Cc3ccc(F)c(F)c3)cn2)c1=O [Compound 547] | 240 nM | 10 nM |
| Cn1ccc(C(=O)Nc2ccc(Cc3ccc(F)c(F)c3)cn2)nc1=O [Compound 548] | > 45000 nM | 3000 nM |
| N#Cc1cnc(C(=O)Nc2ccc(Cc3ccc(F)c(F)c3)cn2)nc1 [Compound 549] | > 45000 nM | 890 nM |
| Cn1cc(C(=O)Nc2ccc(Cc3ccc(F)c(C#N)c3)cn2)ccc1=O [Compound 550] | 2400 nM | 370 nM |
| Cn1nc(C(=O)Nc2ccc(Cc3cccc(F)c3F)cn2)ccc1=O [Compound 551] | > 45000 nM | 1200 nM |
| Cn1cc(C(=O)Nc2ccc(Cc3cccc(F)c3F)cn2)ccc1=O [Compound 552] | 1900 nM | 360 nM |
| O=C(O)c1cnc(C(=O)Nc2ccc(Cc3ccc(F)c(F)c3)cn2)cn1 [Compound 554] | 3200 nM | 8800 nM |
| O=C(Nc1ccc(Cc2cccc(F)c2)cn1)c1cc2ncncc2s1 [Compound 555] | 740 nM | 10 nM |
| O=C(Nc1ccc(Cc2cccc(Cl)c2)cn1)c1cc2ncncc2s1 [Compound 556] | 2300 nM | 10 nM |
| O=C(Nc1ccc(Cc2cccc(Cl)c2)cn1)c1ccc(C2(O)CC2)nc1 [Compound 557] | > 45000 nM | 1900 nM |
| Cn1nc(C(=O)Nc2ccc(Cc3cc(F)c(F)c(C#N)c3)cn2)ccc1=O [Compound 558] | 43000 nM | 64 nM |
| O=C(Nc1ccc(Cc2cc(F)cc(F)c2)cn1)c1ncc(CO)cn1 [Compound 559] | 10 nM | 10 nM |
| Cn1nc(C(=O)Nc2ccc(Cc3cccc(F)c3)cn2)cc1CO [Compound 560] | 250 nM | 22 nM |
| Cn1nc(C(=O)Nc2ccc(Cc3cccc(C(F)F)c3)cn2)ccc1=O [Compound 561] | 6700 nM | 200 nM |
| Cn1nc(C(=O)Nc2ccc(Cc3cc(F)cc(C(F)F)c3)cn2)ccc1=O [Compound 562] | 1000 nM | 10 nM |
| N#Cc1cc(C(=O)Nc2ccc(Cc3ccc(F)c(F)c3)cn2)ccn1 [Compound 563] | 1100 nM | 570 nM |
| Cn1nc(C(=O)Nc2ccc(Cc3ccc(F)c(C#N)c3)cn2)ccc1=O [Compound 564] | 1400 nM | 62 nM |
| Cn1cc(C(=O)Nc2ccc(Cc3cc(F)ccc3F)cn2)ccc1=O [Compound 565] | 2700 nM | 20 nM |
| Cn1cc(C(=O)Nc2ccc(Cc3c(F)cccc3F)cn2)ccc1=O [Compound 566] | > 45000 nM | 5600 nM |
| CNC(=O)c1ccnc(NC(=O)c2ccc(Cc3cccc(F)c3)cn2)c1 [Compound 567] | 10 nM | 10 nM |
| C=Cc1cnc(C(=O)Nc2ccc(Cc3ccc(F)c(F)c3)cn2)nc1 [Compound 568] | 3900 nM | 880 nM |
| Cn1cc(NC(=O)c2ccc(COc3ccccc3)cn2)ccc1=O [Compound 569] | > 45000 nM | 1200 nM |
| COC(=O)c1ccnc(C(=O)Nc2ccc(Cc3cccc(F)c3)cn2)c1 [Compound 570] | 10000 nM | 430 nM |
| Cn1nc(C(=O)Nc2ccc(Cc3ccc(F)c(F)c3Cl)cn2)ccc1=O [Compound 571] | 520 nM | 10 nM |
